PubChem BioAssay AID1919008 (Molecular Pharmacology Branch, DTP, NCI, 2023)

Test system: DMS-114 complex spheroids with HUVEC/MSC, growth % test/control
Experiment: Anticancer human tumor DMS-114 cell line growth inhibition [AhR];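 also: spheroids exposed to agents for 7 days before readout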;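 as to viability, T/C: 100% = DMSO vehicle control wells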
Conditions: for IC50: curve of first compound; for viability, T/C: stronger effect = lower value
In short: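 Agents were dosed in half-log steps down from roughly clinical Cmax, or from 10 microM where Cmax was unknown, alone and with AhR antagonists. Read-out: percent test/control growth of tumor spheroids containing HUVEC and MSC stromal cells.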

[1] = second compound 0.1 µM, first compound 0.0316 µM
[2] = second compound 0.1 µM, first compound 0.1 µM
[3] = second compound 0.1 µM, first compound 0.316 µM
[4] = second compound 0.1 µM, first compound 1 µM
[5] = second compound 0.1 µM, first compound 3.16 µM
[6] = second compound 0.1 µM, first compound 10 µM
[7] = second compound 0.316 µM, first compound 0.0316 µM
[8] = second compound 0.316 µM, first compound 0.1 µM
[9] = second compound 0.316 µM, first compound 0.316 µM
[10] = second compound 0.316 µM, first compound 1 µM
[11] = second compound 0.316 µM, first compound 3.16 µM
[12] = second compound 0.316 µM, first compound 10 µM
[13] = second compound 1 µM, first compound 0.0316 µM
[14] = second compound 1 µM, first compound 0.1 µM
[15] = second compound 1 µM, first compound 0.316 µM
[16] = second compound 1 µM, first compound 1 µM
[17] = second compound 1 µM, first compound 3.16 µM
[18] = second compound 1 µM, first compound 10 µM
[19] = second compound 3.16 µM, first compound 0.0316 µM
[20] = second compound 3.16 µM, first compound 0.1 µM
[21] = second compound 3.16 µM, first compound 0.316 µM
[22] = second compound 3.16 µM, first compound 1 µM
[23] = second compound 3.16 µM, first compound 3.16 µM
[24] = second compound 3.16 µM, first compound 10 µM
[25] = second compound 10 µM, first compound 0.0316 µM
[26] = second compound 10 µM, first compound 0.1 µM
[27] = second compound 10 µM, first compound 0.316 µM
[28] = second compound 10 µM, first compound 1 µM
[29] = second compound 10 µM, first compound 3.16 µM
[30] = second compound 10 µM, first compound 10 µM
[31] = second compound 0.1 µM, first compound 0.00949 µM
[32] = second compound 0.1 µM, first compound 0.03 µM
[33] = second compound 0.1 µM, first compound 0.0949 µM
[34] = second compound 0.1 µM, first compound 0.3 µM
[35] = second compound 0.316 µM, first compound 0.00949 µM
[36] = second compound 0.316 µM, first compound 0.03 µM
[37] = second compound 0.316 µM, first compound 0.0949 µM
[38] = second compound 0.316 µM, first compound 0.3 µM
[39] = second compound 1 µM, first compound 0.00949 µM
[40] = second compound 1 µM, first compound 0.03 µM
[41] = second compound 1 µM, first compound 0.0949 µM
[42] = second compound 1 µM, first compound 0.3 µM
[43] = second compound 3.16 µM, first compound 0.00949 µM
[44] = second compound 3.16 µM, first compound 0.03 µM
[45] = second compound 3.16 µM, first compound 0.0949 µM
[46] = second compound 3.16 µM, first compound 0.3 µM
[47] = second compound 10 µM, first compound 0.00949 µM
[48] = second compound 10 µM, first compound 0.03 µM
[49] = second compound 10 µM, first compound 0.0949 µM
[50] = second compound 10 µM, first compound 0.3 µM

For `Nc1ccn(C2OC(CO)C(O)C2(F)F)c(=O)n1` (stereo not given) + Cc1cncc(-c2nc(NCCc3c[nH]c4ccccc34)c3ncn(C(C)C)c3n2)c1, the IC50 (second compound 0.1 µM) was < 31.6 nM, the IC50 (second compound 0.316 µM) was < 31.6 nM and the IC50 (second compound 1 µM) was < 31.6 nM. The IC50 (second compound 3.16 µM) was < 31.6 nM, the IC50 (second compound 10 µM) was < 31.6 nM and the viability, T/C [1] was 8.56%. For the same molecule, the viability, T/C [2] was 9.8%, the viability, T/C [3] was 9.67% and the viability, T/C [4] was 7.95%. The viability, T/C [5] was 10.1%, the viability, T/C [6] was 8.44% and the viability, T/C [7] was 8.17%. It also gave a viability, T/C [8] of 8.73%, a viability, T/C [9] of 9.32% and a viability, T/C [10] of 9.26%. It also gave a viability, T/C [11] of 8.71%, a viability, T/C [12] of 9.3% and a viability, T/C [13] of 9.4%. It also gave a viability, T/C [14] of 10.1%, a viability, T/C [15] of 8.34% and a viability, T/C [16] of 9.34%. It also gave a viability, T/C [17] of 8.86%, a viability, T/C [18] of 9.03% and a viability, T/C [19] of 8.74%. For the same molecule, the viability, T/C [20] was 10.6%, the viability, T/C [21] was 11.1% and the viability, T/C [22] was 8.92%. The viability, T/C [23] was 9.63%, the viability, T/C [24] was 8.89% and the viability, T/C [25] was 9.18%. It also gave a viability, T/C [26] of 7.73%, a viability, T/C [27] of 8.82% and a viability, T/C [28] of 7.58%. For the same molecule, the viability, T/C [29] was 8.49% and the viability, T/C [30] was 9.08%.

`CCN(c1cc(-c2ccc(CN3CCOCC3)cc2)cc(C(=O)NCc2c(C)cc(C)[nH]c2=O)c1C)C1CCOCC1` + CC(CO)NC(=O)c1cc(-c2ccc(Cl)cc2)nn(-c2cnn(C)c2)c1=O was tested, and the IC50 (second compound 0.1 µM) was > 3000 nM, the IC50 (second compound 0.316 µM) was > 3000 nM and the IC50 (second compound 1 µM) was > 3000 nM. The IC50 (second compound 3.16 µM) was > 3000 nM, the IC50 (second compound 10 µM) was > 3000 nM and the viability, T/C [31] was 95.4%. The viability, T/C [32] was 86.3%, the viability, T/C [33] was 103% and the viability, T/C [34] was 100%. It also gave a viability, T/C (second compound 0.1 µM, first compound 0.949 µM) of 98%, a viability, T/C (second compound 0.1 µM, first compound 3 µM) of 92.5% and a viability, T/C [35] of 110%. It also gave a viability, T/C [36] of 107%, a viability, T/C [37] of 104% and a viability, T/C [38] of 102%. For the same molecule, the viability, T/C (second compound 0.316 µM, first compound 0.949 µM) was 92.8%, the viability, T/C (second compound 0.316 µM, first compound 3 µM) was 93% and the viability, T/C [39] was 98.3%. It also gave a viability, T/C [40] of 106%, a viability, T/C [41] of 109% and a viability, T/C [42] of 104%. For the same molecule, the viability, T/C (second compound 1 µM, first compound 0.949 µM) was 95.7%, the viability, T/C (second compound 1 µM, first compound 3 µM) was 101% and the viability, T/C [43] was 118%. For the same molecule, the viability, T/C [44] was 96.5%, the viability, T/C [45] was 111% and the viability, T/C [46] was 104%. The viability, T/C (second compound 3.16 µM, first compound 0.949 µM) was 93.3%, the viability, T/C (second compound 3.16 µM, first compound 3 µM) was 91% and the viability, T/C [47] was 117%. It also gave a viability, T/C [48] of 98.1%, a viability, T/C [49] of 117% and a viability, T/C [50] of 100%. The viability, T/C (second compound 10 µM, first compound 0.949 µM) was 92.4% and the viability, T/C (second compound 10 µM, first compound 3 µM) was 86.5%.

In the case of `Nc1ncn(C2CC(O)C(CO)S2)c(=O)n1` (stereo not given) + CC(CO)NC(=O)c1cc(-c2ccc(Cl)cc2)nn(-c2cnn(C)c2)c1=O, the IC50 (second compound 0.1 µM) is reported as > 300 nM, the IC50 (second compound 0.316 µM) is reported as > 300 nM and the IC50 (second compound 1 µM) is reported as > 300 nM. The IC50 (second compound 3.16 µM) was > 300 nM, the IC50 (second compound 10 µM) was > 300 nM and the viability, T/C (second compound 0.1 µM, first compound 0.000949 µM) was 117%. For the same molecule, the viability, T/C (second compound 0.1 µM, first compound 0.003 µM) was 101%, the viability, T/C [31] was 108% and the viability, T/C [32] was 115%. The viability, T/C [33] was 85.3%, the viability, T/C [34] was 59.5% and the viability, T/C (second compound 0.316 µM, first compound 0.000949 µM) was 111%. It also gave a viability, T/C (second compound 0.316 µM, first compound 0.003 µM) of 113%, a viability, T/C [35] of 92.7% and a viability, T/C [36] of 89.5%. It also gave a viability, T/C [37] of 79.9%, a viability, T/C [38] of 58.3% and a viability, T/C (second compound 1 µM, first compound 0.000949 µM) of 107%. It also gave a viability, T/C (second compound 1 µM, first compound 0.003 µM) of 107%, a viability, T/C [39] of 96.9% and a viability, T/C [40] of 102%. It also gave a viability, T/C [41] of 80%, a viability, T/C [42] of 55.7% and a viability, T/C (second compound 3.16 µM, first compound 0.000949 µM) of 112%. For the same molecule, the viability, T/C (second compound 3.16 µM, first compound 0.003 µM) was 107%, the viability, T/C [43] was 115% and the viability, T/C [44] was 118%. It also gave a viability, T/C [45] of 66.2%, a viability, T/C [46] of 51.9% and a viability, T/C (second compound 10 µM, first compound 0.000949 µM) of 126%. The viability, T/C (second compound 10 µM, first compound 0.003 µM) was 108%, the viability, T/C [47] was 108% and the viability, T/C [48] was 103%. The viability, T/C [49] was 87.8% and the viability, T/C [50] was 58%.

In the case of `CC1COCCN1c1cc(C2(S(C)(=N)=O)CC2)nc(-c2ccnc3[nH]ccc23)n1` (stereo not given) + CC(CO)NC(=O)c1cc(-c2ccc(Cl)cc2)nn(-c2cnn(C)c2)c1=O, the IC50 (second compound 0.1 µM) is reported as 4220 nM, the IC50 (second compound 0.316 µM) is reported as 4930 nM and the IC50 (second compound 1 µM) is reported as 4930 nM. The IC50 (second compound 3.16 µM) was 2120 nM, the IC50 (second compound 10 µM) was 1780 nM and the viability, T/C [1] was 109%. The viability, T/C [2] was 84.7%, the viability, T/C [3] was 96.7% and the viability, T/C [4] was 84.6%. For the same molecule, the viability, T/C [5] was 54.3%, the viability, T/C [6] was 36.1% and the viability, T/C [7] was 94.9%. The viability, T/C [8] was 101%, the viability, T/C [9] was 93.4% and the viability, T/C [10] was 89.5%. The viability, T/C [11] was 62.2%, the viability, T/C [12] was 30.5% and the viability, T/C [13] was 112%. The viability, T/C [14] was 86.6%, the viability, T/C [15] was 85.8% and the viability, T/C [16] was 91.2%. It also gave a viability, T/C [17] of 55.6%, a viability, T/C [18] of 33.4% and a viability, T/C [19] of 105%. It also gave a viability, T/C [20] of 106%, a viability, T/C [21] of 93.6% and a viability, T/C [22] of 65.4%. The viability, T/C [23] was 43%, the viability, T/C [24] was 27.1% and the viability, T/C [25] was 103%. The viability, T/C [26] was 96.1%, the viability, T/C [27] was 98.9% and the viability, T/C [28] was 61.1%. For the same molecule, the viability, T/C [29] was 41.3% and the viability, T/C [30] was 27.7%.
